In patent publication US20110033376A1, “Treatment of Melanoma” (priority 2007, published 2011):

What was measured:
[1] = system: 3 melanoma cell lines (A375, G-361, WM266-4); assay: CellTiter-Blue cytotoxic response, summary over 3 melanoma cell lines; format: cell-based; conditions: Homo sapiens, 24 h, read-out: IC50 of cytotoxic response
Experimental: Cells were harvested, washed, re-suspended into growth medium and counted (Beckman-Coulter Vi-CELL XR). […] 50 μl of growth media was aliquoted into the outer wells. 2 plates were prepared per cell line. Plates were incubated overnight at 37° C., in 5% humidified CO2.
The final assays concentrations were 10, 2.5, 0.63, 0.156, 0.039, 0.010, 0.002 and 0.0006 μg/ml. […] 12.5 μl of growth media was added to the media control wells. The plates were incubated for 24 hours at 37° C., in 5% humidified CO2.
The plates were shaken for 1 minute at 500 rpm and then incubated at 37° C., 5% CO2 for 4 hours.

A375 melanoma cells [2] = assay: CellTiter-Blue cell viability assay; format: cell-based, human; conditions: A375, 24 hours incubation; for IC50: CellTiter-Blue
Experimental: (§1) 3 human melanoma cell lines (A375, G-361, WM266-4) were maintained in RPMI 1640 culture medium (Sigma, UK) containing 10% (v/v) heat inactivated foetal bovine serum (Sigma, UK) and 2 mM […] at 37° C. in 5% humidified CO2. Cells were harvested, washed, re-suspended into growth medium and counted (Beckman-Coulter Vi-CELL XR). Cells were plated onto the middle 240 wells of 384 tissue culture plates at 1.6×10^5 to 2.4×10^5 cells/ml in 12.5 μl/well aliquots. 50 μl of growth media was aliquoted into the outer wells. 2 plates were prepared per cell line. Plates were incubated overnight at 37° C., in 5% humidified CO2.
(§2) Dexanabinol was prepared in growth medium at 2 times the final assay concentration at 125, 31.3, 7.81, 2.00, 0.49, 0.12, 0.031 and 0.008 μM (DMSO concentration was kept constant across the dilution range at 0.5%).
(§3) Cisplatin was used as a positive control. The final assays concentrations were 10, 2.5, 0.63, 0.156, 0.039, 0.010, 0.002 and 0.0006 μg/ml. […] 12.5 μl of growth media was added to the media control wells. The plates were incubated for 24 hours at 37° C., in 5% humidified CO2.
(§4) The cell viability assay was performed in parallel on the same plate for each line using CellTiter-Blue© (Promega) reagent. Briefly, 25 μl of CellTiter-Blue© (Promega) reagent was added to each well. The plates were shaken for 1 minute at 500 rpm and then incubated at 37° C., 5% CO2 for 4 hours.

WM266-4 melanoma cells [3] = assay: CellTiter-Blue cell viability assay; format: cell-based, human; conditions: WM266-4, 24 hours incubation; for IC50: CellTiter-Blue
Experimental: as §1, §2, §3, §4

G-361 melanoma cells [4] = assay: CellTiter-Blue cell viability assay; format: cell-based, human; conditions: G-361, 24 hours incubation; for IC50: CellTiter-Blue
Experimental: as §1, §2, §3, §4

A375 melanoma cells [5] = assay: Sulforhodamine B (SRB) growth inhibition assay; format: cell-based, human
Experimental: (§5) The ability of dexanabinol to inhibit melanoma cell growth was also studied in 3 melanoma cell lines (A375, UACC62, Malme-3M) using the Sulforhodamine B (SRB) assay.
(§6) Sterile solutions of the final concentrations of dexanabinol were prepared (0.001 μM to 100 μM in 0.5% DMSO).
(§7) The cells were incubated with drug concentrations in 0.5% DMSO (100 μl total volume per well) at 37° C. in 5% CO2 for 5 days. Control wells contained cells plus 0.5% DMSO plus medium.
(§8) The SRB growth inhibition assay was conducted over 24 and 5 day exposure periods. Following exposure, the cells were fixed, stained with SRB and read on a SpectorMax® 250 microplate spectrophotometer system plate reader.

UACC62 melanoma cells = assay: Sulforhodamine B (SRB) growth inhibition assay; format: cell-based, human; conditions: UACC62, 5-day exposure
Experimental: as §5, §6, §7, §8

[6] = system: human melanoma cell lines (A375, G-361, WM266-4); assay: Caspase 3/7 apoptosis induction, summary over melanoma cell lines; format: cell-based
Experimental: as §1, §2, §3
(§9) Caspase 3/7 levels were assessed by Apo-ONE© Homogeneous Caspase-3/7 assay kit. Fluorescence was measured using a FlexStation© II^384 plate reader at 1, 2, 3 and 4 hours after addition of the caspase substrate. The 4 hour readings were used for analysis.

A375 melanoma cells [7] = assay: Clonogenic assay, time-course effect on cell proliferation; format: cell-based, human; conditions: A375, 1 hour vs 24 hours exposure
Experimental: The time-course effect of dexanabinol on cell proliferation in one melanoma cell line, A375, was examined using the clonogenic assay method.
A375 cells were harvested from the growing cell culture and counted. Cells were diluted to 1.0×10^5/ml and seeded 2 ml/well to 6 well plates.
The cells were incubated overnight at 37° C. in humidified incubator 95% air+5% CO2.
The cells were treated with dexanabinol at 4 doses up to 20 μM at 3 exposure periods (1 hour, 6 hours and 24 hours).
After each exposure period, the cells were harvested from the wells by washing twice with PBS then adding 0.2 ml of single strength trypsin to each well and incubating at 37° C. until the cells detached. Cell suspensions were counted at 1/10 dilution and then diluted to 1/10, 1/100, 1/1000.
10 cm dishes (containing 7 ml fresh medium) were seeded with 3 different cell densities for dexanabinol treatment and control treatment. When colonies of suitable size formed in the control dishes, dishes were fixed, stained and counted.
Percentage survival in the dexanabinol treated A375 cells was calculated using the following equation: […]

Malme-3M melanoma cells = assay: Sulforhodamine B (SRB) growth inhibition assay; format: cell-based; conditions: Homo sapiens, 120 h, 5-day exposure
Experimental: as §5, §6, §7, §8

A375 melanoma cells [8] = assay: Apo-ONE Homogeneous Caspase-3/7 assay (induction of apoptosis); format: cell-based, human; conditions: A375, 24 hours incubation
Experimental: as §1, §2, §3, §9

WM266-4 melanoma cells [9] = assay: as above; format: cell-based, human; conditions: WM266-4, 24 hours incubation; for EC50: caspase 3/7
Experimental: as §1, §2, §3, §9

G-361 melanoma cells [10] = assay: as above; format: cell-based, human; conditions: G-361, 24 hours incubation
Experimental: as §1, §2, §3, §9

[11] = system: A375 human tumour xenograft; assay: Single-dose efficacy study, human melanoma cell xenograft growth; format: in vivo; conditions: single dose 100 mg/kg i.v., CD1 nude mice bearing A375 xenograft
Experimental: (§10) Having established that dexanabinol inhibited melanoma cell proliferation in vitro, we then sought to establish whether the compound was active in vivo. A preliminary pharmacokinetic (PK) and maximum tolerated dose (MTD) study was carried out to determine whether therapeutically effective dose levels of dexanabinol could be achieved in CD1 A375 tumour-bearing mice. […] On the basis of this, a single-dose efficacy study was undertaken. Dexanabinol was diluted in a vehicle of 10% Cremophor/Ethanol (1:1 v/v) in saline. Control mice received vehicle alone.
10 mice received 100 mg/kg i.v. dexanabinol. 10 mice received Vehicle (10 ml/kg) Mice were implanted with 1×10^7 A375 human melanoma cells, in 50 μl of medium, on the flank. Once tumours were palpable (approx 5 mm×5 mm) 20 mice were treated with either dexanabinol or vehicle (as outlined above). […] Tumour size was measured 3 times a week after treatment. The treatment lasted 4 weeks

[12] = Preliminary pharmacokinetic (PK) and maximum tolerated dose (MTD) study; format: in vivo, CD1 A375 tumour-bearing mice; conditions: CD1 mice
Experimental: as §10

[13] = system: all tested human melanoma cell lines; assay: In vitro cell proliferation assays, summary over all tested lines; format: cell-based
Experimental: as §4, §5, §8

For CCCCCCC(C)(C)c1cc(O)c2c(c1)OC(C)(C)[C@H]1CC=C(CO)C[C@H]21 [Dexanabinol, 1,1 dimethyl heptyl-(3S,4S)-7-hydroxy-Δ^6-tetrahydrocannabinol], the IC50 [1] was 10 to 21 µM, the “Rank of decrease in proliferation (viability)” value (“Rank of decrease” below) (A375 melanoma cells [2]) was “** (moderate apoptosis induction and decrease in proliferation (35-70%))” and the IC50 (A375 melanoma cells [2]; Homo sapiens, A-375) was 19.2 µM. The IC50 (WM266-4 melanoma cells [3]; Homo sapiens, WM 266-4) was 20.9 µM, the “Rank of decrease” value (WM266-4 melanoma cells [3]) was “** (moderate apoptosis induction and decrease in proliferation (35-70%))” and the “Rank of decrease” value (G-361 melanoma cells [4]) was “*** (good apoptosis induction and decrease in proliferation (>70%))”. The IC50 (G-361 melanoma cells [4]; Homo sapiens) was 11 µM, the GI50 (A375 melanoma cells [5]; A375, 5-day exposure) was 14.4 µM and the GI50 (A375 melanoma cells [5]; Homo sapiens, A-375, 24 h, A375, 24-hour exposure) was 14.3 µM. It also gave a GI50 (A375 melanoma cells [5]; Homo sapiens, A-375, 120 h, A375, 5-day exposure) of 16.2 µM, a GI50 (UACC62 melanoma cells; Homo sapiens, UACC-62, 120 h) of 18.5 µM and a GI50 (UACC62 melanoma cells) of 18.1 µM. For the same compound, the “Concentration of peak response in apoptosis” value ([6]; 24 hours incubation, response dropped at the highest concentration) was 2.5 µM, the “Mode of cell death” value ([6]; caspase 3/7) was “induced apoptotic cell death in a caspase 3/7 dependent manner” and the “Time dependence of cell killing” value (A375 melanoma cells [7]) was “time-independent”. The GI50 (Malme-3M melanoma cells) was 13.3 µM, the “Rank of apoptosis induction” value (A375 melanoma cells [8]) was “ND*** (good apoptosis induction and decrease in proliferation (>70%))” and the EC50 (WM266-4 melanoma cells [9]; Homo sapiens, WM 266-4) was 13 µM. The “Rank of apoptosis induction” value (WM266-4 melanoma cells [9]) was “*** (good apoptosis induction and decrease in proliferation (>70%))”, the “Rank of apoptosis induction” value (G-361 melanoma cells [10]) was “ND* (weak apoptosis induction and decrease in proliferation (<35%))” and the “Effect on tumour xenograft growth” value [11] was “growth delaying effect”. For the same compound, the Plasma concentration ([12]; at the MTD, 100 mg/kg i.v. single dose) was 10 µM, the MTD ([12]; mouse, in vivo, iv, i.v. single dose) was 100 mg/kg and the “Mean concentration at which profoundly cytotoxic” value ([13]; all tested human melanoma cell lines) was roughly 14. For the same compound, the “Drug concentrations at which in vitro anti-tumour effects were observed” value ([13]; in vitro) was 10 to 20 µM.

In the case of N.N.[Cl][Pt][Cl] [Cisplatin], the “Rank of decrease” value (A375 melanoma cells [2]) is reported as “** (moderate apoptosis induction and decrease in proliferation (35-70%))”, the IC50 (A375 melanoma cells [2]) is reported as 21.8 µM and the “Rank of decrease” value (WM266-4 melanoma cells [3]) is reported as “* (weak apoptosis induction and decrease in proliferation (<35%))”. For the same compound, the IC50 (WM266-4 melanoma cells [3]) was 62 µM, the “Rank of decrease” value (G-361 melanoma cells [4]) was “** (moderate apoptosis induction and decrease in proliferation (35-70%))” and the IC50 (G-361 melanoma cells [4]) was 18 µM. The “Rank of apoptosis induction” value (A375 melanoma cells [8]) was “** (moderate apoptosis induction and decrease in proliferation (35-70%))”, the EC50 (A375 melanoma cells [8]; caspase 3/7) was 5.67 µM and the “Rank of apoptosis induction” value (WM266-4 melanoma cells [9]) was “*** (good apoptosis induction and decrease in proliferation (>70%))”. For the same compound, the EC50 (WM266-4 melanoma cells [9]) was 33.3 to 100 µM, the “Rank of apoptosis induction” value (G-361 melanoma cells [10]) was “** (moderate apoptosis induction and decrease in proliferation (35-70%))” and the EC50 (G-361 melanoma cells [10]; caspase 3/7) was 33.3 to 100 µM.
